Test results reported in patent US20170232083A1, “METHODS OF DIAGNOSIS AND TREATMENT OF CELIAC DISEASE IN CHILDREN” (priority 2014, published 2017).

System: PBMC (polyclonal gluten-specific T cells) of paediatric and adult CD patients
Assay: IFN-γ ELISpot of PBMC after 3 day oral wheat challenge (SFU, % of maximal peptide response, dominance scores, EC50; Examples 5-6)
Type: cell-based, human
Details: for Cross-reactive T cell response: following wheat challenge; for IFN-γ ELISpot response: after oral wheat challenge
[1] = subject I (3-5yrs/6-10yrs part)
[2] = subject J (3-5yrs/6-10yrs part)
[3] = subject K (3-5yrs/6-10yrs part)
[4] = subject V (3-5yrs/6-10yrs part)
[5] = subject W (3-5yrs/6-10yrs part)
[6] = subject Y (3-5yrs/6-10yrs part)
[7] = subject five (3-5yrs/6-10yrs part)
[8] = subject seven (3-5yrs/6-10yrs part)
[9] = subject six (3-5yrs/6-10yrs part)
[10] = subject ten (3-5yrs/6-10yrs part)
[11] = subject two (3-5yrs/6-10yrs part)
[12] = patient A, 11-17 yrs, cut-off 10 SFU
[13] = patient E, H, 11-17 yrs, cut-off 10 SFU
[14] = patient F, 11-17 yrs, cut-off 10 SFU
[15] = patient G, 11-17 yrs, cut-off 10 SFU
[16] = patient H (HLA-DQ2.5 homozygote), 3-5yrs, cut-off 10 SFU
[17] = patient H, 11-17 yrs, cut-off 10 SFU
[18] = patient ID not given, 11-17 yrs, cut-off 10 SFU
[19] = patient N, 3-5yrs, cut-off 10 SFU
[20] = patient P, 11-17 yrs, cut-off 21.6 SFU
[21] = patient Q, 11-17 yrs, cut-off 10 SFU
[22] = patient U, H, 11-17 yrs, cut-off 10 SFU
[23] = patient V, 6-10 yrs, cut-off 10 SFU
[24] = patient Y, 6-10 yrs, cut-off 10 SFU
[25] = patient eleven, 6-10 yrs, cut-off 10 SFU
[26] = patient four, 3-5yrs, cut-off 10 SFU
[27] = patient seven, 6-10 yrs, cut-off 10.5 SFU
[28] = patient ten, 3-5yrs, cut-off 10 SFU
[29] = patient three, 6-10 yrs, cut-off 10.5 SFU
[30] = patient twelve, 11-17 yrs, cut-off 10 SFU
[31] = patient two, 3-5yrs, cut-off 10 SFU

## PFPLQPEQPVPEQPQ
Subject A, 11-17yrs
  Cross-reactive T cell response: 2 SFU
Subject D, 11-17yrs
  Cross-reactive T cell response: 9 SFU
Subject E, 11-17yrs
  Cross-reactive T cell response: 3 SFU
Subject F, 11-17yrs
  Significant response as a percentage of maximal peptide SFU: ′ (11-20% = ′)
  Cross-reactive T cell response: 20 SFU
Subject G, 11-17yrs
  Cross-reactive T cell response: 0 SFU
Subject H
  Cross-reactive T cell response: 3 SFU
[1]
  Cross-reactive T cell response: 1 SFU
[2]
  Cross-reactive T cell response: 3 SFU
[3]
  Cross-reactive T cell response: 5 SFU
Subject P, 11-17yrs
  Cross-reactive T cell response: 6 SFU
Subject Q, 11-17yrs
  Cross-reactive T cell response: 5 SFU
Subject T, 11-17yrs
  Significant response as a percentage of maximal peptide SFU: ′′ (21-40% = ′′)
  Cross-reactive T cell response: 21 SFU
Subject U, 11-17yrs
  Significant response as a percentage of maximal peptide SFU: ′ (11-20% = ′)
  Cross-reactive T cell response: 10 SFU
[4]
  Cross-reactive T cell response: 7 SFU
[5]
  Cross-reactive T cell response: 11 SFU
[6]
  Cross-reactive T cell response: 2 SFU
[7]
  Cross-reactive T cell response: 1 SFU
Subject nine, 11-17yrs
  Cross-reactive T cell response: 1 SFU
[8]
  Cross-reactive T cell response: 1 SFU
[9]
  Cross-reactive T cell response: 3 SFU
Subject ten
  Significant response as a percentage of maximal peptide SFU: + (>70% = +)
[10]
  Cross-reactive T cell response: 11 SFU
[11]
  Cross-reactive T cell response: 5 SFU

## PFPQQPQQPFPQP
[12]
  IFN-γ ELISpot response: 0 SFU
[13]
  IFN-γ ELISpot response: 0 SFU
[14]
  IFN-γ ELISpot response: 1 SFU
[15]
  IFN-γ ELISpot response: 0 SFU
[16]
  IFN-γ ELISpot response: 4 SFU
[17]
  IFN-γ ELISpot response: 2 SFU
[18]
  IFN-γ ELISpot response: 0 SFU
[19]
  IFN-γ ELISpot response: 2 SFU
[20]
  IFN-γ ELISpot response: 14 SFU
[21]
  IFN-γ ELISpot response: 9 SFU
[22]
  IFN-γ ELISpot response: 2 SFU
[23]
  IFN-γ ELISpot response: 3 SFU
[24]
  IFN-γ ELISpot response: 6 SFU
[25]
  IFN-γ ELISpot response: 3 SFU
[26]
  IFN-γ ELISpot response: 0 SFU
[27]
  IFN-γ ELISpot response: 1 SFU
[28]
  IFN-γ ELISpot response: 12 SFU
Patient ten, max peptide 14.5 SFU
  Significant response as percentage of maximal peptide SFU: + (>70% = +)
[29]
  IFN-γ ELISpot response: 5 SFU
[30]
  IFN-γ ELISpot response: 2 SFU
[31]
  IFN-γ ELISpot response: 3 SFU

## PIPQQPQQPFPLQ
[12]
  IFN-γ ELISpot response: 6 SFU
[13]
  IFN-γ ELISpot response: 5 SFU
[14]
  IFN-γ ELISpot response: 5 SFU
[15]
  IFN-γ ELISpot response: 2 SFU
[16]
  IFN-γ ELISpot response: 0 SFU
[17]
  IFN-γ ELISpot response: 10 SFU
Patient H, max peptide 17 SFU
  Significant response as percentage of maximal peptide SFU: ′′′ (41-70% = ′′′)
[18]
  IFN-γ ELISpot response: 3 SFU
Patient II, max peptide 15 SFU
  Significant response as percentage of maximal peptide SFU: + (>70% = +)
[19]
  IFN-γ ELISpot response: 1 SFU
[20]
  IFN-γ ELISpot response: 9 SFU
[21]
  IFN-γ ELISpot response: 13 SFU
Patient Q, max peptide 97 SFU
  Significant response as percentage of maximal peptide SFU: ′ (11-20% = ′)
[22]
  IFN-γ ELISpot response: 4 SFU
[23]
  IFN-γ ELISpot response: 9 SFU
[24]
  IFN-γ ELISpot response: 5 SFU
[25]
  IFN-γ ELISpot response: 4 SFU
[26]
  IFN-γ ELISpot response: 1 SFU
[27]
  IFN-γ ELISpot response: 14 SFU
Patient seven, max peptide 27 SFU
  Significant response as percentage of maximal peptide SFU: ′′′ (41-70% = ′′′)
[28]
  IFN-γ ELISpot response: 7 SFU
[29]
  IFN-γ ELISpot response: 1 SFU
[30]
  IFN-γ ELISpot response: 1 SFU
[31]
  IFN-γ ELISpot response: 2 SFU

## PQQPQQSFPQQQQPA
[15]
  IFN-γ ELISpot response: 11 SFU
Patient G, max peptide 15 SFU
  Significant response as percentage of maximal peptide SFU: + (>70% = +)
[17]
  IFN-γ ELISpot response: 1 SFU
[18]
  IFN-γ ELISpot response: 3 SFU
Patient K, max peptide 53 SFU
  Significant response as percentage of maximal peptide SFU: ′′ (21-40% = ′′)
[20]
  IFN-γ ELISpot response: 4 SFU
[21]
  IFN-γ ELISpot response: 1 SFU
[22]
  IFN-γ ELISpot response: 2 SFU
[23]
  IFN-γ ELISpot response: 10 SFU
Patient V, max peptide 35 SFU
  Significant response as percentage of maximal peptide SFU: ′′ (21-40% = ′′)
[24]
  IFN-γ ELISpot response: 3 SFU
[25]
  IFN-γ ELISpot response: 0 SFU
[26]
  IFN-γ ELISpot response: 0 SFU
[27]
  IFN-γ ELISpot response: 10 SFU
[28]
  IFN-γ ELISpot response: 7 SFU
[29]
  IFN-γ ELISpot response: 1 SFU
[31]
  IFN-γ ELISpot response: 0 SFU

## QEFPQPEQPFPQQ
Subject A, 11-17yrs
  Cross-reactive T cell response: 4 SFU
Subject D, 11-17yrs
  Significant response as a percentage of maximal peptide SFU: ′′′ (41-70% = ′′′)
  Cross-reactive T cell response: 15 SFU
Subject E, 11-17yrs
  Significant response as a percentage of maximal peptide SFU: ′ (11-20% = ′)
  Cross-reactive T cell response: 30 SFU
Subject F, 11-17yrs
  Significant response as a percentage of maximal peptide SFU: ′′ (21-40% = ′′)
  Cross-reactive T cell response: 38 SFU
Subject G, 11-17yrs
  Cross-reactive T cell response: 4 SFU
Subject H
  Cross-reactive T cell response: 1 SFU
[1]
  Cross-reactive T cell response: 8 SFU
Subject J
  Significant response as a percentage of maximal peptide SFU: ′′′ (41-70% = ′′′)
[2]
  Cross-reactive T cell response: 93 SFU
Subject K
  Significant response as a percentage of maximal peptide SFU: ′′ (21-40% = ′′)
[3]
  Cross-reactive T cell response: 21 SFU
Subject P, 11-17yrs
  Cross-reactive T cell response: 7 SFU
Subject Q, 11-17yrs
  Significant response as a percentage of maximal peptide SFU: ′′′ (41-70% = ′′′)
  Cross-reactive T cell response: 44 SFU
Subject T, 11-17yrs
  Significant response as a percentage of maximal peptide SFU: + (>70% = +)
  Cross-reactive T cell response: 67 SFU
Subject U, 11-17yrs
  Significant response as a percentage of maximal peptide SFU: ′′ (21-40% = ′′)
  Cross-reactive T cell response: 23 SFU
Subject V
  Significant response as a percentage of maximal peptide SFU: ′′ (21-40% = ′′)
[4]
  Cross-reactive T cell response: 11 SFU
[5]
  Cross-reactive T cell response: 3 SFU
[6]
  Cross-reactive T cell response: 2 SFU
Subject five
  Significant response as a percentage of maximal peptide SFU: + (>70% = +)
[7]
  Cross-reactive T cell response: 36 SFU
Subject nine, 11-17yrs
  Cross-reactive T cell response: 1 SFU
[8]
  Cross-reactive T cell response: 2 SFU
[9]
  Cross-reactive T cell response: 6 SFU
[10]
  Cross-reactive T cell response: 8 SFU
Subject two
  Significant response as a percentage of maximal peptide SFU: ′′′ (41-70% = ′′′)
[11]
  Cross-reactive T cell response: 30 SFU

## QFIQPEQPFPQQ
[12]
  IFN-γ ELISpot response: 0 SFU
[13]
  IFN-γ ELISpot response: 31 SFU
Patient E, max peptide 224 SFU
  Significant response as percentage of maximal peptide SFU: ′ (11-20% = ′)
[14]
  IFN-γ ELISpot response: 28 SFU
Patient F, max peptide 178 SFU
  Significant response as percentage of maximal peptide SFU: ′ (11-20% = ′)
[15]
  IFN-γ ELISpot response: 2 SFU
[16]
  IFN-γ ELISpot response: 8 SFU
[17]
  IFN-γ ELISpot response: 3 SFU
[18]
  IFN-γ ELISpot response: 21 SFU
Patient ID not given, max peptide 95 SFU
  Significant response as percentage of maximal peptide SFU: ′′ (21-40% = ′′)
Patient II, max peptide 15 SFU
  Significant response as percentage of maximal peptide SFU: + (>70% = +)
Patient J, max peptide 196 SFU
  Significant response as percentage of maximal peptide SFU: ′ (11-20% = ′)
Patient K, max peptide 53 SFU
  Significant response as percentage of maximal peptide SFU: ′′ (21-40% = ′′)
[19]
  IFN-γ ELISpot response: 6 SFU
[20]
  IFN-γ ELISpot response: 8 SFU
[21]
  IFN-γ ELISpot response: 25 SFU
Patient Q, max peptide 97 SFU
  Significant response as percentage of maximal peptide SFU: ′′ (21-40% = ′′)
[22]
  IFN-γ ELISpot response: 13 SFU
Patient U, max peptide 81 SFU
  Significant response as percentage of maximal peptide SFU: ′ (11-20% = ′)
[23]
  IFN-γ ELISpot response: 19 SFU
Patient V, max peptide 35 SFU
  Significant response as percentage of maximal peptide SFU: ′′′ (41-70% = ′′′)
[24]
  IFN-γ ELISpot response: 3 SFU
[25]
  IFN-γ ELISpot response: 0 SFU
[26]
  IFN-γ ELISpot response: 6 SFU
[27]
  IFN-γ ELISpot response: 8 SFU
[28]
  IFN-γ ELISpot response: 6 SFU
[29]
  IFN-γ ELISpot response: 30 SFU
[30]
  IFN-γ ELISpot response: 6 SFU
[31]
  IFN-γ ELISpot response: 7 SFU

## QLFPLPEQPFPQP
Subject A, 11-17yrs
  Cross-reactive T cell response: 2 SFU
Subject D, 11-17yrs
  Cross-reactive T cell response: 2 SFU
Subject E, 11-17yrs
  Cross-reactive T cell response: 2 SFU
Subject F, 11-17yrs
  Cross-reactive T cell response: 2 SFU
Subject G, 11-17yrs
  Cross-reactive T cell response: 0 SFU
Subject H
  Cross-reactive T cell response: 0 SFU
[1]
  Cross-reactive T cell response: 1 SFU
Subject J
  Significant response as a percentage of maximal peptide SFU: ′ (11-20% = ′)
[2]
  Cross-reactive T cell response: 26 SFU
[3]
  Cross-reactive T cell response: 5 SFU
Subject P, 11-17yrs
  Cross-reactive T cell response: 11 SFU
Subject Q, 11-17yrs
  Significant response as a percentage of maximal peptide SFU: ′ (11-20% = ′)
  Cross-reactive T cell response: 13 SFU
Subject T, 11-17yrs
  Significant response as a percentage of maximal peptide SFU: ′ (11-20% = ′)
  Cross-reactive T cell response: 13 SFU
Subject U, 11-17yrs
  Cross-reactive T cell response: 9 SFU
[4]
  Cross-reactive T cell response: 4 SFU
[5]
  Cross-reactive T cell response: 4 SFU
[6]
  Cross-reactive T cell response: 2 SFU
[7]
  Cross-reactive T cell response: 7 SFU
Subject nine, 11-17yrs
  Cross-reactive T cell response: 1 SFU
[8]
  Cross-reactive T cell response: 1 SFU
[9]
  Cross-reactive T cell response: 0 SFU
Subject ten
  Significant response as a percentage of maximal peptide SFU: + (>70% = +)
[10]
  Cross-reactive T cell response: 14 SFU
[11]
  Cross-reactive T cell response: 3 SFU
